Measurements taken from the supplement of paper PMC11451515.

Test system: SEM cells
Experiment: cell viability relative to DMSO control; higher = less cytotoxic
Settings: 48 h
Outline: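 NOMO1 or SEM cells were plated at 500 cells/well and P12-Ichikawa cells at 1000 cells/well in 1536-well plates (5 μl), after each leukemia line had been adapted for at least four passages in each medium. Pin dosing delivered library compounds in DMSO at 11 threefold concentrations, 47 μM to 0.79 nM. CellTiter-Glo One luminescence was read after 48 h at 37°C. Viability is reported as a per-plate percentage of DMSO wells, with cell-free wells as background.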

[1] = RPMI 5 mM glucose + 10% FBS, 0.000781 µM
[2] = RPMI 5 mM glucose + 10% FBS, 0.00234 µM
[3] = RPMI 5 mM glucose + 10% FBS, 0.00702 µM
[4] = RPMI 5 mM glucose + 10% FBS, 0.0211 µM
[5] = RPMI 5 mM glucose + 10% FBS, 0.0632 µM
[6] = RPMI 5 mM glucose + 10% FBS, 0.19 µM
[7] = RPMI 5 mM glucose + 10% FBS, 0.569 µM
[8] = RPMI 5 mM glucose + 10% FBS, 1.71 µM
[9] = RPMI 5 mM glucose + 10% FBS, 5.12 µM
[10] = RPMI 5 mM glucose + 10% FBS, 15.4 µM
[11] = RPMI 5 mM glucose + 10% FBS, 46.1 µM
[12] = RPMI 5 mM glucose + 10% dialyzed FBS, 0.000781 µM
[13] = RPMI 5 mM glucose + 10% dialyzed FBS, 0.00234 µM
[14] = RPMI 5 mM glucose + 10% dialyzed FBS, 0.00702 µM
[15] = RPMI 5 mM glucose + 10% dialyzed FBS, 0.0211 µM
[16] = RPMI 5 mM glucose + 10% dialyzed FBS, 0.0632 µM
[17] = RPMI 5 mM glucose + 10% dialyzed FBS, 0.19 µM
[18] = RPMI 5 mM glucose + 10% dialyzed FBS, 0.569 µM
[19] = RPMI 5 mM glucose + 10% dialyzed FBS, 1.71 µM
[20] = RPMI 5 mM glucose + 10% dialyzed FBS, 5.12 µM
[21] = RPMI 5 mM glucose + 10% dialyzed FBS, 15.4 µM
[22] = RPMI 5 mM glucose + 10% dialyzed FBS, 46.1 µM
[23] = HPLM + 10% dialyzed FBS, 0.000781 µM
[24] = HPLM + 10% dialyzed FBS, 0.00234 µM
[25] = HPLM + 10% dialyzed FBS, 0.00702 µM
[26] = HPLM + 10% dialyzed FBS, 0.0211 µM
[27] = HPLM + 10% dialyzed FBS, 0.0632 µM
[28] = HPLM + 10% dialyzed FBS, 0.19 µM
[29] = HPLM + 10% dialyzed FBS, 0.569 µM
[30] = HPLM + 10% dialyzed FBS, 1.71 µM
[31] = HPLM + 10% dialyzed FBS, 5.12 µM
[32] = HPLM + 10% dialyzed FBS, 15.4 µM
[33] = HPLM + 10% dialyzed FBS, 46.1 µM

Row | Compound | cell viability [1] [%] | cell viability [2] [%] | cell viability [3] [%] | cell viability [4] [%] | cell viability [5] [%] | cell viability [6] [%] | cell viability [7] [%] | cell viability [8] [%] | cell viability [9] [%] | cell viability [10] [%] | cell viability [11] [%] | cell viability [12] [%] | cell viability [13] [%] | cell viability [14] [%] | cell viability [15] [%] | cell viability [16] [%] | cell viability [17] [%] | cell viability [18] [%] | cell viability [19] [%] | cell viability [20] [%] | cell viability [21] [%] | cell viability [22] [%] | cell viability [23] [%] | cell viability [24] [%] | cell viability [25] [%] | cell viability [26] [%] | cell viability [27] [%] | cell viability [28] [%] | cell viability [29] [%] | cell viability [30] [%] | cell viability [31] [%] | cell viability [32] [%] | cell viability [33] [%]
1 | O=C(CCCCCCC(=O)Nc1ccc([C@H]2O[C@@H](CSc3nc(-c4ccccc4)c(-c4ccccc4)o3)C[C@@H](c3ccc(CO)cc3)O2)cc1)NO | 109 | 124 | 128 | 134 | 121 | 112 | 115 | 114 | 87.4 | 8.6 | 7.11 | 113 | 117 | 135 | 135 | 124 | 133 | 130 | 116 | 77.6 | 9.58 | 7.49 | – | – | – | – | – | – | – | – | – | – | –
2 | Cc1nn(C)c(COc2ccc(N3CCN([S+](=O)([O-])N(C)C)CC3)cc2)c1-c1cccc2c(CCCOc3cccc4ccccc34)c(C(=O)O)n(CCN3CCOCC3)c12 | – | – | – | – | – | – | – | – | – | – | – | 97.3 | 106 | 105 | 106 | 110 | 91.4 | 123 | 114 | 71 | 117 | 21.4 | 86 | 82.9 | 102 | 99.8 | 105 | 100 | 101 | 118 | 96.2 | 112 | 51.7
3 | C[N]1C=C(C2=CC=CC=C12)\C3=C(\C(=O)NC3=O)C4=C[N](C5CCN(CC5)CC6=NC=CC=C6)C7=C4C=CC=C7 | 95.2 | 108 | 114 | 119 | 112 | 104 | 111 | 93.3 | 102 | 66.4 | 87.5 | 98.6 | 124 | 109 | 118 | 118 | 127 | 119 | 111 | 101 | 69.2 | 117 | 98.6 | 113 | 102 | 119 | 114 | 116 | 125 | 118 | 112 | 71.6 | 109
4 | C[C@H](CCC(=O)O)[C@H]1CCC2C3C[C@H](O)[C@@H]4C[C@H](O)CC[C@]4(C)C3CC[C@@]21C (some centres undefined) | 109 | 122 | 129 | 131 | 135 | 102 | 103 | 117 | 123 | 107 | 108 | – | – | – | – | – | – | – | – | – | – | – | – | – | – | – | – | – | – | – | – | – | –
5 | COC(=O)Nc1nc2cc(C(=O)c3ccc(F)cc3)ccc2[nH]1 | 95.5 | 105 | 110 | 100 | 92.8 | 95.4 | 77.6 | 40.4 | 32.7 | 28.2 | 52 | 83.6 | 98.8 | 103 | 117 | 115 | 109 | 79.3 | 52 | 45.8 | 37.7 | 52.1 | 103 | 95.4 | 102 | 91.1 | 98.6 | 97.9 | 51.3 | 40.1 | 33.2 | 26.2 | 47.8
6 | CC(=O)N[C@@H]1[C@@H](NC(N)=N)\C=C(/O[C@H]1[C@H](O)[C@H](O)CO)C(O)=O | 80.1 | 90.1 | 125 | 98.6 | 89 | 129 | 49.5 | 128 | 136 | 119 | 110 | 64.5 | 82.9 | 117 | 102 | 126 | 122 | 38.4 | 120 | 121 | 110 | 113 | 78.4 | 89.6 | 98.1 | 107 | 107 | 123 | 40.2 | 106 | 112 | 98.6 | 95.4
